In patent publication US20240279202A1 (NURIX THERAPEUTICS, INC., priority 2021, published 2024):

Target: T1, ITK (Mus musculus, UniProt Q03526)
T1 construct: mice were sacrificed and splenocytes were isolated and used to prepare protein lysates; from tissue; host or cells: mouse splenocytes (spleen) after oral dosing
T1 sequence (Q03526 1-625): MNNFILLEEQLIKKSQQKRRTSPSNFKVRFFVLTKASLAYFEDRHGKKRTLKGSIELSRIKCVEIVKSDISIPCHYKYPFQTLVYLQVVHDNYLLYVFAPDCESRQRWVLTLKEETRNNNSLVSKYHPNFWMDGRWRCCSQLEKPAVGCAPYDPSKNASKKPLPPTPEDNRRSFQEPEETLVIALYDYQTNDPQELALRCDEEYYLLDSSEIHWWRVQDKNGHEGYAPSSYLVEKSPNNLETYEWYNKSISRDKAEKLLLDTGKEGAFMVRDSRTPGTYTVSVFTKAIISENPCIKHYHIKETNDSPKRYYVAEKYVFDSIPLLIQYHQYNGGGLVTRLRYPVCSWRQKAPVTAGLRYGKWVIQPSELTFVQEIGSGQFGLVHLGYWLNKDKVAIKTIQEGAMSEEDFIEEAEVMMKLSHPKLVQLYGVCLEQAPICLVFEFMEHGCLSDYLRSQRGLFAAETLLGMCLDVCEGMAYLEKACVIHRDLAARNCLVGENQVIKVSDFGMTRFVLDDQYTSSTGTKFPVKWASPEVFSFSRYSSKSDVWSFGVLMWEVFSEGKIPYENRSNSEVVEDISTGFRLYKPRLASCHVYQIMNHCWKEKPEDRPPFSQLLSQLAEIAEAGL
Test: Mouse PD assay for ITK degradation (Western blot, splenocytes after oral administration)
Assay type: in vivo
Settings: for ITK degradation in vivo at 6 hours (FIG. 2): 90 mg/kg PO; for ITK (%) 90 mpk PO, 6 h: percent ITK remaining in mouse splenocytes relative to vehicle
Method: Compounds 1, 3, 7, and 42 were formulated and administered at 90 mg/kg to mice by oral gavage (PO). Blood was collected at defined time points (after 1, 2, and 6 hours) after compounds administration to determine PK parameters. Concentration increased through 6 hours. Six hours later mice were sacrificed and splenocytes were isolated and used to prepare protein lysates. Total protein levels were determined in the lysates using the BCA assay according to standard methods. Equal amounts of protein were then analyzed by Western blot to determine the level of ITK expression in each sample. ITK band intensities were measured using Alpha View software and the percent of ITK remaining in each test animal was determined relative to the mean of ITK levels in vehicle control samples.
After 6 hours, splenocytes cells were harvested. ITK was evaluated by Western blotting.
Compounds 43, 4, 5, 10, 11, 12, 44, 14, 3, and 13 were administered to mice orally. After 6 hours, splenocytes cells were harvested. ITK was evaluated by Western blotting. Media was removed and cell pellets were lysed in 100 uL lysis buffer (RIPA buffer (Fisher, PI89901), cOmplete Mini EDTA-free protease inhibitor (Sigma 11836170001), Protease Inhibitor Cocktail (Sigma, P2714), Phosphatase Inhibitor Cocktail 2 and 3 (Sigma, P5726 and P0044), Benzonase (Sigma, E1014)). Cells were lysed overnight at −20° C. Following thaw, cells were centrifuged for 10 min at 13000 rpm, then transferred to new tube. Protein levels were determined by BCA Assay performed according to manufacturer's protocol (EMID Millipore, cat. no. 71285-3). Samples were combined with (4×) LDS Sample Buffer and (10×) Reducing Agent and H2O to equally load 20 ug protein per lane of a 26-well NuPAGE 4-12% Bis-Tris protein gel (1.0 mm, Thermo cat. no. NP0326). Samples were separated by running gels at constant 150 V in NuPAGE MES SDS Running Buffer. Following electrophoresis, proteins were transferred to nitrocellulose membranes using an iBlot Gel Transfer Device and iBlot Gel Transfer Stacks (Thermo cat. no. IB21001 and IB301001) and transfer method P3 (20V for 7 min). Membranes were blocked for 1 hr in 5% milk solution (TBS (0.2% Tween-20)). Following blocking, membranes were incubated with primary antibody (1:1000 CST ITK (2F12) #2380) overnight at 4° C. with gentle shaking. Blots were washed 2× in TBS (0.2% Tween-20), 30 min per wash. Following washes, blots were incubated in secondary HRP-conjugated antibody (Promega anti-Mouse IgG (H+L) HRP cat. no. W4021), 1:5000 in 5% milk solution (TBS (0.2% Tween-20)), for 1 hr at room temperature with gentle shaking. Blots were washed 2× in TBS (0.2% Tween-20), 30 min per wash. Blots were incubated with 1:1 mix of ECL reagents 1 & 2 (Amersham ECL Western Blotting Detection Reagent, cat. no. RPN2106) for 2 min at room temperature. Bands were visualized using a Protein Simple imager. Blots were then re-probed with a combination of anti-actin antibody (Sigma Monoclonal Mouse Anti-3-Actin (clone AC-15), cat. no. A5441) and secondary H1RP-conjugated antibody (Promega anti-Mouse IgG (H+L) HRP, cat. no. W4021) and similar steps were taken for incubation, wash, detection and visualization steps as above. The data was analyzed using Alpha View software. The densitometric reading for each sample band was normalized to that of the corresponding actin band per lane. Approximate % ITK remaining per sample was calculated as follows: […]
Once % ITK remaining has been calculated for each sample, groups are averaged together to show an means % ITK normalized to actin and relative to control.
Compounds 16, 17, and 18 were administered to mice orally. After 6 hours or 24 hours, splenocytes cells were harvested. ITK was evaluated by Western blotting. Plasma concentrations were determined by LC/MS/MS. Plasma samples were protein precipitated by addition of 100 μl of acetonitrile containing 50 ng/ml of internal standard. The resulting mixture was vortexed and centrifuged at 4000 RPM for 5 minutes. […]

[1] = mice, splenocytes, Western blot
[2] = mice, oral, splenocytes, Western blot

`C[C@@H](C(=O)N(C)c1ccc2cc(-c3n[nH]c4c3CCC(C)(C)C4)[nH]c2c1)N1CCN(CC2CCN(c3cccc4c3n(C)c(=O)n4C3CCC(=O)NC3=O)CC2)CC1` (stereo partly drawn) [Compound 3, (2S)—N-(2-(6,6-dimethyl-4,5,6,7-tetrahydro-1H-indazol-3-yl)-1H-indol-6-yl)-2-(4-((1-(1-(2,6-dioxopiperidin-3-yl)-3-methyl-2-oxo-2,3-dihydro-1H-benzo[d]imidazol-4-yl)piperidin-4-yl)methyl)piperazin-1-yl)-N-methylpropanamide] was tested, and the “ITK degradation in vivo at 6 hours (FIG. 2)” value [1] was “degraded ITK in vivo”, the “ITK degradation in vivo at 6 hours (FIG. 3A, FIG. 4A)” value [2] was “degraded ITK in vivo” and the “ITK degradation in vivo at 24 hours (FIG. 3A, FIG. 4A)” value (mice, oral, splenocytes, Western blot, 24 hours) was “degraded ITK in vivo”. For the same compound, the “ITK (%) 90 mpk PO, 6 h” value was 24%.
In the case of `CC1(C)CCc2c(-c3cc4ccc(N5CCC6(CCN(CC7CCN(c8ccc(C9CCC(=O)NC9=O)cn8)CC7)CC6)C5=O)cc4[nH]3)n[nH]c2C1` (stereo not shown) [Compound 22, 3-(6-(4-((2-(2-(6,6-dimethyl-4,5,6,7-tetrahydro-1H-indazol-3-yl)-1H-indol-6-yl)-1-oxo-2,8-diazaspiro[4.5]decan-8-yl)methyl)piperidin-1-yl)pyridin-3-yl)piperidine-2,6-dione], the “ITK (%) 90 mpk PO, 6 h” value is reported as 76%.
`C[C@@]12Cc3[nH]nc(C(=O)Nc4cnn(CC5CN(C(=O)C6CCN(c7ccc(C8CCC(=O)NC8=O)cn7)CC6)C5)c4)c3C[C@@H]1C2(F)F` (stereo partly drawn) [Compound 50, (4aS,5aR)-N-(1-((1-(1-(5-(2,6-dioxopiperidin-3-yl)pyridin-2-yl)piperidine-4-carbonyl)azetidin-3-yl)methyl)-1H-pyrazol-4-yl)-5,5-difluoro-5a-methyl-1,4,4a,5,5a,6-hexahydrocyclopropa[f]indazole-3-carboxamide] was tested, and the “ITK (%) 90 mpk PO, 6 h” value was 113%.
`CN(C(=O)CC1CCN(CC2CCN(c3ccc(C4CCC(=O)NC4=O)cn3)CC2)CC1)c1ccc2cc(-c3n[nH]c4c3C[C@@H]3C(F)(F)[C@]3(C)C4)[nH]c2c1` (stereo partly drawn) [Compound 73, N-(2-((4aS,5aR)-5,5-difluoro-5a-methyl-1,4,4a,5,5a,6-hexahydrocyclopropa[f]indazol-3-yl)-1H-indol-6-yl)-2-(1-((1-(5-(2,6-dioxopiperidin-3-yl)pyridin-2-yl)piperidin-4-yl)methyl)piperidin-4-yl)-N-methylacetamide] was tested, and the “ITK (%) 90 mpk PO, 6 h” value was 92%.
In the case of `C[C@@H](C(=O)N(C)c1ccc2cc(-c3n[nH]c4c3CCC(C)(C)C4)[nH]c2c1)N1CCN(CC2CCN(c3ccc(C(=O)NC4CCC(=O)NC4=O)nc3)CC2)CC1` (stereo partly drawn) [Compound 7, 5-(4-((4-((S)-1-((2-(6,6-dimethyl-4,5,6,7-tetrahydro-1H-indazol-3-yl)-1H-indol-6-yl)(methyl)amino)-1-oxopropan-2-yl)piperazin-1-yl)methyl)piperidin-1-yl)-N-(2,6-dioxopiperidin-3-yl)picolinamide], the “ITK degradation in vivo at 6 hours (FIG. 2)” value [1] is reported as “degraded ITK in vivo” and the “ITK (%) 90 mpk PO, 6 h” value is reported as 100%.
For `CN(c1ccc2cc(-c3n[nH]c4c3C[C@@H]3C(F)(F)[C@]3(C)C4)[nH]c2c1)C(=O)[C@H]1C[C@]2(CCN(c3ccc4c(c3)C(=O)N([C@H]3CCC(=O)NC3=O)C4=O)C2)C1` (racemic) [Compound 71b, (2s,4s)-N-[2-[(4aS,5aR)-5,5-difluoro-5a-methyl-1H,4H,4aH,6H-cyclopropa[f]indazol-3-yl]-1H-indol-6-yl]-6-[2-[(3RS)-2,6-dioxopiperidin-3-yl]-1,3-dioxoisoindol-5-yl]-N-methyl-6-azaspiro[3.4]octane-2-carboxamide], the “ITK (%) 90 mpk PO, 6 h” value was 30%.
`CN(C(=O)CC1CCN(CC2CCN(c3ccc(C(=O)NC4CCC(=O)NC4=O)nc3)CC2)CC1)c1ccc2cc(-c3n[nH]c4c3C[C@@H]3C(F)(F)[C@]3(C)C4)[nH]c2c1` (stereo partly drawn) [Compound 75, 5-(4-((4-(2-((2-((4aS,5aR)-5,5-difluoro-5a-methyl-1,4,4a,5,5a,6-hexahydrocyclopropa[f]indazol-3-yl)-1H-indol-6-yl)(methyl)amino)-2-oxoethyl)piperidin-1-yl)methyl)piperidin-1-yl)-N-(2,6-dioxopiperidin-3-yl)picolinamide] was tested, and the “ITK (%) 90 mpk PO, 6 h” value was 137%.
With `C[C@@H](C(=O)N(C)c1ccc2cc(-c3n[nH]c4c3CCC(C)(C)C4)[nH]c2c1)N1CCN(CC2CCN(c3ccc4c(c3)n(C)c(=O)n4C3CCC(=O)NC3=O)CC2)CC1` (stereo partly drawn) [Compound 6, (2S)—N-(2-(6,6-dimethyl-4,5,6,7-tetrahydro-1H-indazol-3-yl)-1H-indol-6-yl)-2-(4-((1-(1-(2,6-dioxopiperidin-3-yl)-3-methyl-2-oxo-2,3-dihydro-1H-benzo[d]imidazol-5-yl)piperidin-4-yl)methyl)piperazin-1-yl)-N-methylpropanamide] the “ITK (%) 90 mpk PO, 6 h” value was 105%.
In the case of `C[C@@H](C(=O)N(C)c1ccc2cc(-c3n[nH]c4c3CCC(C)(C)C4)[nH]c2c1)N1CCN(C[C@@H]2CCN(c3ccc4c(c3)n(C)c(=O)n4C3CCC(=O)NC3=O)C2)CC1` (stereo partly drawn) [Compound 4, (2S)—N-(2-(6,6-dimethyl-4,5,6,7-tetrahydro-1H-indazol-3-yl)-1H-indol-6-yl)-2-(4-(((3S)-1-(1-(2,6-dioxopiperidin-3-yl)-3-methyl-2-oxo-2,3-dihydro-1H-benzo[d]imidazol-5-yl)pyrrolidin-3-yl)methyl)piperazin-1-yl)-N-methylpropanamide], the “ITK degradation in vivo at 6 hours (FIG. 3A, FIG. 4A)” value [2] is reported as “degraded ITK in vivo” and the “ITK (%) 90 mpk PO, 6 h” value is reported as 75%.
With `C[C@@]12Cc3[nH]nc(-c4cc5ccc(N6CCC7(CCN(CC8CCN(c9ccc(C%10CCC(=O)NC%10=O)cn9)CC8)CC7)C6=O)cc5[nH]4)c3C[C@@H]1C2(F)F` (stereo partly drawn) [Compound 19, 3-(6-(4-((2-(2-((4aS,5aR)-5,5-difluoro-5a-methyl-1,4,4a,5,5a,6-hexahydrocyclopropa[f]indazol-3-yl)-1H-indol-6-yl)-1-oxo-2,8-diazaspiro[4.5]decan-8-yl)methyl)piperidin-1-yl)pyridin-3-yl)piperidine-2,6-dione] the “ITK (%) 90 mpk PO, 6 h” value was 8%.
For `CN(C(=O)CCC1CCN(c2ccc(C3CCC(=O)NC3=O)cn2)CC1)c1ccc2cc(-c3n[nH]c4c3C[C@@H]3C(F)(F)[C@]3(C)C4)[nH]c2c1` (stereo partly drawn) [Compound 21, N-(2-((4aS,5aR)-5,5-difluoro-5a-methyl-1,4,4a,5,5a,6-hexahydrocyclopropa[f]indazol-3-yl)-1H-indol-6-yl)-3-(1-(5-(2,6-dioxopiperidin-3-yl)pyridin-2-yl)piperidin-4-yl)-N-methylpropanamide], the “ITK (%) 90 mpk PO, 6 h” value was 76%.
